In patent publication US11192891B2, “Diazaspiro ROCK inhibitors” (BRISTOL-MYERS SQUIBB COMPANY, priority 2017, dated 2021):
pIC50: −log10 of the molar value.

Molecular target: ROCK2 (Homo sapiens, UniProt O75116)
Test: ROCK kinase inhibition assay, FITC peptide substrate, LABCHIP 3000 readout
Assay type: biochemical
Conditions: 5 μM ATP, 1.5 μM peptide substrate
Protocol: Compounds were dissolved in DMSO so that the final concentration of DMSO was <2%, and the reaction was initiated with Rho kinase variants. After incubation, the reaction was terminated by the addition of EDTA and the phosphorylated and non-phosphorylated peptides separated using a LABCHIP® 3000 Reader (Caliper Life Sciences). […] Compounds were tested in dose-response format, and the inhibition of kinase activity was calculated at each concentration of compound.

ROCK2, sequence (O75116 whole entry, species assumed): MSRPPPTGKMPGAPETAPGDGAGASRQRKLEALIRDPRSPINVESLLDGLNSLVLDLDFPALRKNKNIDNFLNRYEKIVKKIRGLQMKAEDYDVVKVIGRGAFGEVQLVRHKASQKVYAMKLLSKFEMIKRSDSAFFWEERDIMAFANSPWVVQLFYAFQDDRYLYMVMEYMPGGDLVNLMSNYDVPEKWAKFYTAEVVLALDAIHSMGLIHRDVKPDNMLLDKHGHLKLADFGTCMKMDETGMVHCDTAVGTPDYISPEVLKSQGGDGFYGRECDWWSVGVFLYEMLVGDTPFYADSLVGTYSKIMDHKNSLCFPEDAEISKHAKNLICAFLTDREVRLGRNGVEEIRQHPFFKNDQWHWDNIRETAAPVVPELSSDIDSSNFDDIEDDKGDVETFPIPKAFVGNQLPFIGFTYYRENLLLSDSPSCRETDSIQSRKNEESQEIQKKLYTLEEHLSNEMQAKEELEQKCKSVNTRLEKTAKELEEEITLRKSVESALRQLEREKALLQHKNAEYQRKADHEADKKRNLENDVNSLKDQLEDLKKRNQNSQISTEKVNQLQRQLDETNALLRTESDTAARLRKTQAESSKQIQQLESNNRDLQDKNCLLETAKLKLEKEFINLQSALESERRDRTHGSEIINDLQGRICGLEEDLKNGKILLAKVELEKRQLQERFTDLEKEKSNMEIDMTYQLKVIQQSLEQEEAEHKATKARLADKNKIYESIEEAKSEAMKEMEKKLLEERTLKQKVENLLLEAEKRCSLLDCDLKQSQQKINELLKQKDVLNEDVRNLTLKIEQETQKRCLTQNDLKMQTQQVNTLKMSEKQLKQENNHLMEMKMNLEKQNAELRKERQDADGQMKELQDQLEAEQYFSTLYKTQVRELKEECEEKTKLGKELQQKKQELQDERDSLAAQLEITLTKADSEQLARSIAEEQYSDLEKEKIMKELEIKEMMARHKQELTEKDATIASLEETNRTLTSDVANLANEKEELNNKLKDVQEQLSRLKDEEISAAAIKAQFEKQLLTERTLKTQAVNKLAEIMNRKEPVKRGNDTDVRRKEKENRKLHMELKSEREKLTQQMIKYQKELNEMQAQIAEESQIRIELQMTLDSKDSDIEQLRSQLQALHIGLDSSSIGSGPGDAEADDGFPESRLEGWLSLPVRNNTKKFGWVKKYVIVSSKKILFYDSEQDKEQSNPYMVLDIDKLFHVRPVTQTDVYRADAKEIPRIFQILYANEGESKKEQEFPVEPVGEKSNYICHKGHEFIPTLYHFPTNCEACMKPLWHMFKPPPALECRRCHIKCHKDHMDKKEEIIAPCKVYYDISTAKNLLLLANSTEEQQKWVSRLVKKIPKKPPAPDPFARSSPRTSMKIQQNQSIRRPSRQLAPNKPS

Row | Structure (SMILES) | pIC50
1 | COc1cc(N2CCC3(CCN(C(=O)c4ccc5ccccc5c4)CC3)C2=O)ccc1-c1cn[nH]c1 [Example 64, 2-[3-methoxy-4-(1H-pyrazol-4-yl)phenyl]-8-(naphthalene-2-carbonyl)-2,8-diazaspiro[4.5]decan-1-one] | 6.98
2 | COc1cc(N2CCC3(CCN(C(=O)c4cc5ccccc5[nH]4)CC3)C2=O)ccc1-c1cn[nH]c1 [Example 68, 8-(1H-indole-2-carbonyl)-2-[3-methoxy-4-(1H-pyrazol-4-yl)phenyl]-2,8-diazaspiro[4.5]decan-1-one] | 6.33
3 | COc1cc(N2CCC3(CCN(C(=O)c4ccc5c(c4)OCO5)CC3)C2=O)ccc1-c1cn[nH]c1 [Example 69, 8-(2H-1,3-benzodioxole-5-carbonyl)-2-[3-methoxy-4-(1H-pyrazol-4-yl)phenyl]-2,8-diazaspiro[4.5]decan-1-one] | 7.03
4 | COc1cc(N2CCC3(CCN(C(=O)c4cc5ccccc5o4)CC3)C2=O)ccc1-c1cn[nH]c1 [Example 70, 8-(1-benzofuran-2-carbonyl)-2-[3-methoxy-4-(1H-pyrazol-4-yl)phenyl]-2,8-diazaspiro[4.5]decan-1-one] | 6.28
5 | COc1cc(N2CCC3(CCN(C(=O)c4cnccn4)CC3)C2=O)ccc1-c1cn[nH]c1 [Example 71, 2-[3-methoxy-4-(1H-pyrazol-4-yl)phenyl]-8-(pyrazine-2-carbonyl)-2,8-diazaspiro[4.5]decan-1-one] | 6.54
6 | COc1cc(N2CCC3(CCN(C(=O)c4cccnc4)CC3)C2=O)ccc1-c1cn[nH]c1 [Example 73, 2-[3-methoxy-4-(1H-pyrazol-4-yl)phenyl]-8-(pyridine-3-carbonyl)-2,8-diazaspiro[4.5]decan-1-one] | 6.38
7 | COc1cc(N2CCC3(CCN(C(=O)c4cnc5ccccc5c4)CC3)C2=O)ccc1-c1cn[nH]c1 [Example 74, 2-[3-methoxy-4-(1H-pyrazol-4-yl)phenyl]-8-(quinoline-3-carbonyl)-2,8-diazaspiro[4.5]decan-1-one] | 7.11
8 | COc1cc(N2CCC3(CCN(C(=O)c4csnn4)CC3)C2=O)ccc1-c1cn[nH]c1 [Example 77, 2-[3-methoxy-4-(1H-pyrazol-4-yl)phenyl]-8-(1,2,3-thiadiazole-4-carbonyl)-2,8-diazaspiro[4.5]decan-1-one] | 6.34
9 | COc1cc(N2CCC3(CCN(C(=O)c4csc(-c5cccnc5)n4)CC3)C2=O)ccc1-c1cn[nH]c1 [Example 78, 2-[3-methoxy-4-(1H-pyrazol-4-yl)phenyl]-8-[2-(pyridin-3-yl)-1,3-thiazole-4-carbonyl]-2,8-diazaspiro[4.5]decan-1-one] | 7.12
10 | COc1cc(N2CCC3(CCN(C(=O)c4cnc(C)cn4)CC3)C2=O)ccc1-c1cn[nH]c1 [Example 79, 2-[3-methoxy-4-(1H-pyrazol-4-yl)phenyl]-8-(5-methylpyrazine-2-carbonyl)-2,8-diazaspiro[4.5]decan-1-one] | 6.96
11 | COc1cc(N2CCC3(CCN(C(=O)c4cnc5n(c4=O)CCS5)CC3)C2=O)ccc1-c1cn[nH]c1 [Example 81, 2-[3-methoxy-4-(1H-pyrazol-4-yl)phenyl]-8-{5-oxo-2H,3H,5H-[1,3]thiazolo[3,2-a]pyrimidine-6-carbonyl}-2,8-diazaspiro[4.5]decan-1-one] | 7.24
12 | COc1cc(N2CCC3(CCN(C(=O)c4csc(-c5ccccc5)n4)CC3)C2=O)ccc1-c1cn[nH]c1 [Example 84, 2-[3-methoxy-4-(1H-pyrazol-4-yl)phenyl]-8-(2-phenyl-1,3-thiazole-4-carbonyl)-2,8-diazaspiro[4.5]decan-1-one] | 6.86
13 | COc1cc(N2CCC3(CCN(C(=O)c4ccc(-c5ccccc5)o4)CC3)C2=O)ccc1-c1cn[nH]c1 [Example 85, 2-[3-methoxy-4-(1H-pyrazol-4-yl)phenyl]-8-(5-phenylfuran-2-carbonyl)-2,8-diazaspiro[4.5]decan-1-one] | 6.07
14 | COc1cc(N2CCC3(CCN(C(=O)c4cscn4)CC3)C2=O)ccc1-c1cn[nH]c1 [Example 86, 2-[3-methoxy-4-(1H-pyrazol-4-yl)phenyl]-8-(1,3-thiazole-4-carbonyl)-2,8-diazaspiro[4.5]decan-1-one] | 6.35
15 | COc1cc(N2CCC3(CCN(C(=O)c4ccc(C(F)(F)F)nc4)CC3)C2=O)ccc1-c1cn[nH]c1 [Example 87, 2-[3-methoxy-4-(1H-pyrazol-4-yl)phenyl]-8-[6-(trifluoromethyl)pyridine-3-carbonyl]-2,8-diazaspiro[4.5]decan-1-one] | 6.25
16 | COc1cc(N2CCC3(CCN(C(=O)c4ccc(NC(C)=O)cc4)CC3)C2=O)ccc1-c1cn[nH]c1 [Example 88, N-(4-{2-[3-methoxy-4-(1H-pyrazol-4-yl)phenyl]-1-oxo-2,8-diazaspiro[4.5]decane-8-carbonyl}phenyl)acetamide] | 7.14
17 | COc1cc(N2CCC3(CCN(C(=O)c4ncc(OC)c5ccccc45)CC3)C2=O)ccc1-c1cn[nH]c1 [Example 90, 2-[3-methoxy-4-(1H-pyrazol-4-yl)phenyl]-8-(4-methoxyisoquinoline-1-carbonyl)-2,8-diazaspiro[4.5]decan-1-one] | 6.90
18 | COc1cc(N2CCC3(CCN(C(=O)[C@@H]4C[C@H]4c4ccccc4)CC3)C2=O)ccc1-c1cn[nH]c1 [Example 91, 2-[3-methoxy-4-(1H-pyrazol-4-yl)phenyl]-8-[(1R,2R)-2-phenylcyclopropanecarbonyl]-2,8-diazaspiro[4.5]decan-1-one] | 6.36
19 | COc1cc(N2CCC3(CCN(C(=O)c4ccc(C(C)C)cc4)CC3)C2=O)ccc1-c1cn[nH]c1 [Example 92, 2-[3-methoxy-4-(1H-pyrazol-4-yl)phenyl]-8-[4-(propan-2-yl)benzoyl]-2,8-diazaspiro[4.5]decan-1-one] | 7.92
20 | COc1cc(N2CCC3(CCN(C(=O)c4cc5ncc(Br)cn5n4)CC3)C2=O)ccc1-c1cn[nH]c1 [Example 93, 8-{6-bromopyrazolo[1,5-a]pyrimidine-2-carbonyl}-2-[3-methoxy-4-(1H-pyrazol-4-yl)phenyl]-2,8-diazaspiro[4.5]decan-1-one] | 8.30
21 | COc1cc(N2CCC3(CCN(C(=O)c4ccc(N5CCOCC5)cc4)CC3)C2=O)ccc1-c1cn[nH]c1 [Example 94, 2-[3-methoxy-4-(1H-pyrazol-4-yl)phenyl]-8-[4-(morpholin-4-yl)benzoyl]-2,8-diazaspiro[4.5]decan-1-one] | 8.70
22 | COc1cc(N2CCC3(CCN(C(=O)c4ccc(-n5ccnc5)cc4)CC3)C2=O)ccc1-c1cn[nH]c1 [Example 95, 8-[4-(1H-imidazol-1-yl)benzoyl]-2-[3-methoxy-4-(1H-pyrazol-4-yl)phenyl]-2,8-diazaspiro[4.5]decan-1-one] | 7.89
23 | COc1cc(N2CCC3(CCN(C(=O)c4cc[n+]([O-])cc4)CC3)C2=O)ccc1-c1cn[nH]c1 [Example 96, 4-{2-[3-methoxy-4-(1H-pyrazol-4-yl)phenyl]-1-oxo-2,8-diazaspiro[4.5]decane-8-carbonyl}pyridin-1-ium-1-olate] | 5.96

The remaining lines, values ahead:

Row | pIC50 | Structure (SMILES)
24 | 5.77 | COc1cc(N2CCC3(CCN(C(=O)c4ccco4)CC3)C2=O)ccc1-c1cn[nH]c1 [Example 63, 8-(furan-2-carbonyl)-2-[3-methoxy-4-(1H-pyrazol-4-yl)phenyl]-2,8-diazaspiro[4.5]decan-1-one]
25 | 6.12 | COc1cc(N2CCC3(CCN(C(=O)c4ccoc4)CC3)C2=O)ccc1-c1cn[nH]c1 [Example 65, 8-(furan-3-carbonyl)-2-[3-methoxy-4-(1H-pyrazol-4-yl)phenyl]-2,8-diazaspiro[4.5]decan-1-one]
26 | 6.43 | COc1cc(N2CCC3(CCN(C(=O)c4ccc(C)s4)CC3)C2=O)ccc1-c1cn[nH]c1 [Example 66, 2-[3-methoxy-4-(1H-pyrazol-4-yl)phenyl]-8-(5-methylthiophene-2-carbonyl)-2,8-diazaspiro[4.5]decan-1-one]
27 | 6.42 | COc1cc(N2CCC3(CCN(C(=O)c4ccsc4)CC3)C2=O)ccc1-c1cn[nH]c1 [Example 67, 2-[3-methoxy-4-(1H-pyrazol-4-yl)phenyl]-8-(thiophene-3-carbonyl)-2,8-diazaspiro[4.5]decan-1-one]
28 | 6.66 | COc1cc(N2CCC3(CCN(C(=O)c4ccc(C)nc4)CC3)C2=O)ccc1-c1cn[nH]c1 [Example 72, 2-[3-methoxy-4-(1H-pyrazol-4-yl)phenyl]-8-(6-methylpyridine-3-carbonyl)-2,8-diazaspiro[4.5]decan-1-one]
29 | 7.30 | COc1cc(N2CCC3(CCN(C(=O)c4ccc(Cl)cc4F)CC3)C2=O)ccc1-c1cn[nH]c1 [Example 75, 8-(4-chloro-2-fluorobenzoyl)-2-[3-methoxy-4-(1H-pyrazol-4-yl)phenyl]-2,8-diazaspiro[4.5]decan-1-one]
30 | 7.57 | COc1cc(N2CCC3(CCN(C(=O)c4cc5ccccc5s4)CC3)C2=O)ccc1-c1cn[nH]c1 [Example 76, 8-(1-benzothiphene-2-carbonyl)-2-[3-methoxy-4-(1H-pyrazol-4-yl)phenyl]-2,8-diazaspiro[4.5]decan-1-one]
31 | 7.00 | COc1ccc(C(=O)N2CCC3(CC2)CCN(c2ccc(-c4cn[nH]c4)c(OC)c2)C3=O)c(OC)n1 [Example 80, 8-(2,6-dimethoxypyridine-3-carbonyl)-2-[3-methoxy-4-(1H-pyrazol-4-yl)phenyl]-2,8-diazaspiro[4.5]decan-1-one]
32 | 6.96 | COc1cc(N2CCC3(CCN(C(=O)c4cc(C)cs4)CC3)C2=O)ccc1-c1cn[nH]c1 [Example 82, 2-[3-methoxy-4-(1H-pyrazol-4-yl)phenyl]-8-(4-methylthiophene-2-carbonyl)-2,8-diazaspiro[4.5]decan-1-one]
33 | 7.59 | COc1cc(N2CCC3(CCN(C(=O)c4ccc5ncsc5c4)CC3)C2=O)ccc1-c1cn[nH]c1 [Example 83]
34 | 6.93 | COc1cc(N2CCC3(CCN(C(=O)c4cccs4)CC3)C2=O)ccc1-c1cn[nH]c1 [Example 89, 2-[3-methoxy-4-(1H-pyrazol-4-yl)phenyl]-8-(thiophene-2-carbonyl)-2,8-diazaspiro[4.5]decan-1-one]
